# Experimental data: patent publication US12576081B2 (MEZZION PHARMA CO., LTD., priority 2019, dated 2026)
# Several values for one entry are separate records, joined by “and”; a condition that tells them apart may be missing. Equal values may be shown once.
# Legend:
# [1] = test system: adolescents with SVHD who had undergone Fontan palliation; test: FUEL trial, safety and tolerability (adverse event reports); type: in vivo, human
# Source text: (§1) The primary outcome was the change in oxygen consumption at peak exercise (max or peak VO2) from baseline to the 26-week visit. Secondary exercise outcomes included change in additional measures at maximal exertion, as well as change in measures of submaximal exercise at the ventilatory anaerobic threshold (VAT). The primary outcome for clinical secondary aims included change in myocardial performance index (MPI), an echocardiographically-derived measure of systolic and diastolic ventricular function, change in log-transformed reactive hyperemia index (lnRHI), a PAT-derived measure of peripheral vascular function, and change in log-transformed serum BNP level. Safety was monitored through adverse event reports, which were collected according to a pre-specified protocol of study coordinator outreach, and through ad hoc patient and family communication with members of the study team at each site.
# The primary outcome for clinical secondary aims included the between group differences in change in myocardial performance index (MPI), an echocardiographically-derived measure of systolic and diastolic ventricular function, change in log-transformed reactive hyperemia index (lnRHI), a PAT-derived measure of peripheral vascular function, and change in log-transformed serum BNP level. Measurements for each of these secondary outcomes were performed at core labs. Safety was monitored through adverse event reports, which were collected according to a pre-specified protocol of study coordinator outreach, and through adhoc patient and family communication with members of the study team at each site.
# (§2) A sample size of 200 participants per arm was chosen to allow for 90% power to detect a mean treatment difference in change from baseline to 26-week testing in peak VO2 of 10% with a type 1 error of 0.05. We assumed a baseline standard deviation of 7.235 ml/kg/min, a correlation between peak VO2 measurements of 0.33, a drop-out and incomplete testing rate of 10%, and failure to reach maximal effort at the 26-week exercise testing in 15% of participants. These assumptions were based on historical data and reflect a conservative approach to assessing within-participant correlations and failure to reach maximal effort and the analysis was performed using a two-sample, independent means t-test. The primary analysis used the intention-to-treat population to evaluate the difference in the change in the primary outcome between treatment arms. This difference was assessed with an analysis of covariance (ANCOVA) with fixed factors for ventricular morphology (single left versus single right or mixed) and treatment group, with a continuous covariate of baseline peak VO2. For those without data at the 26-week visit, this value was imputed as equal to the baseline value (no change). The alpha level was set at 0.05 with two-sided testing. All statistical analyses were performed using SAS statistical software 9.4 (SAS Institute, Inc., Cary, North Carolina). Secondary analyses included participants who successfully completed the protocol with measurable values at each of the secondary endpoints. Secondary outcomes of continuous data points were analyzed in the manner described for the primary outcome. In order to assess the generalizability of findings at the ventilatory anaerobic threshold, demographic and clinical characteristics were compared between participants without paired VO2 at VAT data and those comprising the remainder of the cohort using the Student's t-test and Fisher's exact test. Fisher's exact test was used to compare adverse events between the udenafil and placebo cohorts.
# [2] = test system: adolescents with Fontan physiology; details: cited from earlier work
# [3] = test system: adolescents with SVHD who had undergone Fontan palliation; test: FUEL trial, cardiopulmonary exercise test (cycle ergometer ramp protocol), peak exercise and ventilatory anaerobic threshold; type: in vivo, human
# Procedure: (§3) The FUEL Trial was conducted at 30 centers around the world. […] (Funded by Mezzion Pharma Co. Ltd., and conducted by the National Heart, Lung, and Blood Institute-funded Pediatric Heart Network; ClinicalTrials.gov number NCT02741115).
# as §1
# (§4) Baseline clinical testing completed before drug initiation included a blood draw to measure brain-type natriuretic peptide (BNP) level, a cardiopulmonary exercise test (CPET) using a standardized cycle ergometer ramp protocol, a standardized echocardiogram, and an assessment of peripheral vascular function using peripheral arterial tonometry (PAT) measured by finger cuff (EndoPAT; Itamar Medical, Israel). Participants who achieved maximal effort, defined as respiratory exchange ratio (RER)≥1.10 at peak exercise during CPET, were eligible for randomization and study drug initiation. […] End-of-study clinical testing included repeat measurement of serum BNP, CPET, echocardiogram, and PAT.
# as §2, with “max” for “peak”, “The following assumption were made:” for “We assumed”, “effort.” for “effort and the analysis was performed using a two-sample, independent means t-test.”, “change).” for “change). The alpha level was set at 0.05 with two-sided testing. All statistical analyses were performed using SAS statistical software 9.4 (SAS Institute, Inc., Cary, North Carolina).”, “cohort.” for “cohort using the Student's t-test and Fisher's exact test. Fisher's exact test was used to compare adverse events between the udenafil and placebo cohorts.”
# The FUEL Trial was a Phase III clinical trial conducted at 30 centers. […] The primary outcome was the between group difference in change in oxygen consumption at peak exercise. Secondary outcomes included between group differences in changes in sub-maximal exercise at the ventilatory anaerobic threshold (VAT), the myocardial performance index (MPI), the natural log of the reactive hyperemia index (lnRHI), and serum brain-type natriuretic peptide (BNP). […]
# [4] = test system: adolescents with SVHD who had undergone Fontan palliation; test: FUEL trial, resting data; type: in vivo, human
# Procedure: as §3, §1
# Individuals between the ages of 12 and 18 years (inclusive) who had undergone the Fontan procedure, who were not receiving treatment with a PDE5 inhibitor, who were ≥40 kg, and who met the minimum height requirement for cycle ergometry (≥132 cm) were eligible for enrollment.
# Randomization assignments were generated by a web-based algorithm after confirmation of trial eligibility and consent.
# as §4
# A sample size of 200 participants per arm was chosen to allow for 90% power to detect a mean treatment difference in change from baseline to 26-week testing in max VO2 of 10% with a type 1 error of 0.05. The following assumption were made: a baseline standard deviation of 7.235 ml/kg/min, a correlation between max VO2 measurements of 0.33, a drop-out and incomplete testing rate of 10%, and failure to reach maximal effort at the 26-week exercise testing in 15% of participants. These assumptions were based on historical data and reflect a conservative approach to assessing within-participant correlations and failure to reach maximal effort. The primary analysis used the intention-to-treat population to evaluate the difference in the change in the primary outcome between treatment arms. This difference was assessed with an analysis of covariance (ANCOVA) with fixed factors for ventricular morphology (single left versus single right or mixed) and treatment group, with a continuous covariate of baseline max VO2. For those without data at the 26-week visit, this value was imputed as equal to the baseline value (no change). […] Secondary outcomes of continuous data points were analyzed in the manner described for the primary outcome. […]
# [5] = test system: adolescents with SVHD who had undergone Fontan palliation; test: FUEL trial, echocardiographic myocardial performance index (blood pool Doppler); type: in vivo, human; details: for MPI difference, Week 26 − Baseline, mean (SD): paired data, decrease shows improvement, p 0.028 vs placebo
# Source text: Generally speaking, MPI (also referred to as the Doppler-derived index or Tei Index) is a measure of ventricular systolic and diastolic function as determined by a focused echocardiogram. It combines systolic and diastolic time intervals to assess heart function. More specifically, MPI can be used to assess ventricular performance represented by a numeric value using cardiac time intervals. This numeric value equals the sum of isovolumetric contraction time (ICT) and isovolumetric relaxation time (IRT) divided by ejection time (ET) and can be determined for either the left or right ventricle. Pellett, A. A., et al.: The Tei Index: Methodology and Disease. State Values. Echocardiography. A Jrnl. of CV Ultrasound & Allied Tech. 21(7):669-672 (2004); and Ulugay, A., Tatli E.: Myocardial performance index. Anadolu Kardiyol Derg 8(2):143-8 (April, 2008), both of which are incorporated herein by reference in their entireties. In the FUEL Trial, the MPI measured the performance of the single functioning ventricle. Thus, the MPI results from the FUEL Trial were determined by velocities obtained from blood pool Doppler assessment of the inflow and outflow tract of the functioning single ventricle. In other words, the FUEL Trial MPI was determined by measuring the cardiac time intervals using pulsed-wave Doppler velocity spectra of the ventricular inflow and outflow of the single functioning ventricle.
# Echocardiograms were performed by sonographers with specific training for this protocol. The primary outcome of interest was MPI using Doppler-based measures of inflow and outflow duration. The duration of inflow into the dominant ventricle and outflow across the dominant semilunar valve were measured and used to calculate MPI using the standard formula. Tei C, Ling L H, Hodge D O, et al.: New index of combined systolic and diastolic myocardial performance: a simple and reproducible measure of cardiac—a study in normals and dilated cardiomyopathy. J Cardiol, 26(6):357-66 (1995); and Pellet A A et al.: The Tei Index Methodology and Disease State Values. Echocardiography: A Jrnl Of CV Ultrasound & Allied Tech, 21(7):669-672 (2004) Additional tissue Doppler images were obtained and used to calculate the tissue Doppler based MPI as previously described. Harada K, Tamura M, Toyono M et al.: Comparison of the right ventricular Tei index by tissue Doppler imaging to that obtained by pulsed Doppler in children without heart disease. Am J Cardiol, 90(5):566-9 (2002). Whenever possible, three measurements were made and the mean duration was used for the calculation.
# as §1
# Baseline clinical testing completed before drug initiation included a blood draw to measure brain-type natriuretic peptide (BNP) level, a cardiopulmonary exercise test (CPET) using a standardized cycle ergometer ramp protocol, a standardized echocardiogram, and an assessment of peripheral vascular function using peripheral arterial tonometry (PAT) measured by finger cuff (EndoPAT; Itamar Medical, Israel). […]
# [6] = 87.5 mg twice daily, baseline to week 26
# [7] = baseline before drug, mean ± SD (n)
smiles,measurement,setting,value
"CCCOc1ccc(S(=O)(=O)NCCC2CCCN2C)cc1-c1nc2c(CCC)nn(C)c2c(=O)[nH]1 (centres unmarked) [Udenafil, udenafil]",Participants who experienced a serious adverse event,"[1]; human, in vivo, 26 weeks",14
same,"Serious adverse events with possible, probable, or definite relationship to study drug","[1]; human, in vivo, 26 weeks",3 events
same,Adverse events more common than in the placebo group,[1]; in vivo,"Headache, facial flushing, abdominal pain, epistaxis, and erection (male participants) were more common"
same,Priapism,[1]; in vivo,no reported episodes of priapism
same,"Serious adverse events related to study drug, kind",[1]; in vivo,"unilateral retinal artery and vein thrombosis, transient lower extremity diplegia, and transient dyspnea"
same,"Non-serious adverse event: increased erection, participants","[1]; male, human, in vivo, 26 weeks",13 (11.7) n (%)
same,Deaths,"[1]; study cohort, 26 weeks",no deaths
same,Average serum concentration,[2]; 87.5 mg twice daily compared with other tested regimens,highest average serum concentration
same,Dose-limiting adverse events,[2]; 87.5 mg twice daily,not associated with dose-limiting adverse events
same,Tolerability,[2]; all tested dosing regimens,tolerability at all tested dosing regimens
same,"Peak VO2 (VO2 max), increase in percent",[3]; [6],2.8%
same,"VE/VCO2 at VAT, decrease in percent",[3]; [6],2.1%
same,"Work rate at VAT, improvement in percent",[3]; [6],5.5% and 5.2%
same,"VO2 at VAT, improvement in percent","[3]; 87.5 mg twice daily, baseline to week 26, paired data",3.2%
same,"Anaerobic threshold oxygen consumption (VO2 at VAT), change","[3]; 87.5 mg twice daily, baseline to week 26, paired data, mean ± SD (n), p 0.023 vs placebo (p=0.012)",30 mL/min and 33 ± 185 mL/min and 29.7 mL/min
same,"Peak exercise heart rate, baseline",[3]; [7],165 ± 20 (200) bpm
same,"Peak exercise minute ventilation, baseline",[3]; [7],71 ± 21 (199) L/min
same,"Peak exercise respiratory rate, baseline",[3]; [7],51 ± 11 (199) breaths/min
same,"Peak exercise work rate, baseline",[3]; [7],120 ± 32 (198) W
same,"Resting oxygen saturation, change","[4]; 87.5 mg twice daily, baseline to week 26, mean ± SD (n), p 0.002 vs placebo",0.5%
same,"Resting diastolic blood pressure, change","[4]; 87.5 mg twice daily, baseline to week 26, mean ± SD (n), p 0.003 vs placebo",−2.9 mmHg
same,"Resting diastolic blood pressure, change vs placebo (in words)",[4]; baseline to 26-week testing,small but statistically significant decrease
same,"Resting heart rate, respiratory rate, or systolic blood pressure, change vs placebo (in words)",[4]; baseline to 26-week testing,no difference
same,"Resting oxygen saturation, change vs placebo (in words)",[4]; baseline to 26-week testing,small but statistically significant increase
same,"MPI, max of the difference Week 26 − Baseline",[5]; 87.5 mg twice daily,0.2
same,"MPI, median (interquartile range) of the difference Week 26 − Baseline",[5]; 87.5 mg twice daily,"−0.01 (−0.11, 0.05)"
same,"MPI, min of the difference Week 26 − Baseline",[5]; 87.5 mg twice daily,−.3
same,"MPI difference, Week 26 − Baseline, mean (SD)",[5]; 87.5 mg twice daily,122: −0.02 (0.113)
same,"MPI difference, Week 26 − Baseline, mean (SD)","[5]; 87.5 mg twice daily, listed as udenafil",−0.02
same,"MPI, LS mean dif A − B (SE), baseline","[5]; udenafil minus placebo, baseline, p 0.818",−0.0 (0.018)
same,"MPI, LS mean dif A − B (SE), Week 26","[5]; udenafil minus placebo, week 26, p 0.024",−0.04 (0.018)
same,"MPI, LS mean dif A − B (SE), difference Week 26 − Baseline","[5]; udenafil minus placebo, p 0.028",−0.03 (0.014)
